Measurements from ChEMBL document CHEMBL3758170, “From indole to pyrrole, furan, thiophene and pyridine: Search for novel small molecule inhibitors of bacterial transcription initiation complex formation” (Bioorg Med Chem, 2016).
Active and inactive are the calls of the source. No cut-off for these calls is given here.

Assays:
Bacillus subtilis [1] = assay: Antibacterial activity against Bacillus subtilis 168 assessed as inhibition of exponential phase of bacterial growth at 200 uM measured every 10 mins for 16 hrs by FLUOstar Optima plate reader analysis relative to control; type: functional; settings: read-out: GI
Escherichia coli [2] = assay: Antibacterial activity against Escherichia coli DH5[alpha] assessed as growth inhibition at 200 uM measured every 10 mins for 16 hrs by FLUOstar Optima plate reader analysis relative to control; type: functional; settings: for inhibition of growth at 200 µM: read-out: GI
BL21-DE3 = assay: Inhibition of Bacillus subtilis C-terminal GST-tagged RNAP beta'-CH expressed in Escherichia coli BL21 (DE3) cells binding interaction with Escherichia coli sigma-70/Bacillus subtilis full length SigmaA2.2 expressed in Escherichia coli C41 (DE3) cells using TMB as substrate at 15 uM preincubated for 1 hr followed by substrate addition by ELISA relative to control
[3] = Solubility of compound in Luria-Bertani medium at 200 uM; type: physicochemical
Bacillus subtilis [4] = assay: Antibacterial activity against Bacillus subtilis 168 assessed as growth inhibition at 200 uM measured every 10 mins for 16 hrs by FLUOstar Optima plate reader analysis relative to control; type: functional; settings: for inhibition of growth at 200 µM: read-out: GI
Escherichia coli [5] = assay: Antibacterial activity against Escherichia coli DH5[alpha] assessed as inhibition of exponential phase of bacterial growth at 200 uM measured every 10 mins for 16 hrs by FLUOstar Optima plate reader analysis relative to control; type: functional; settings: read-out: GI

Row | Compound | solubility [3] | inhibition of growth at 200 µM (Bacillus subtilis [1]) [%] | growth inhibition (GI) (Escherichia coli [2]) | inhibition (BL21-DE3) | inhibition of growth at 200 µM (Bacillus subtilis [4]) [%] | inhibition of growth at 200 µM (Escherichia coli [2]) [%] | growth inhibition (GI) (Bacillus subtilis [4]) | inhibition of growth at 200 µM (Escherichia coli [5]) [%]
1 | COc1cc(OC)c2c(-c3ccc(Br)cc3)c[nH]c2c1C(=O)NNC(=O)c1ccnc(Br)c1 | soluble | 29 | inactive | 20% |  |  |  | 
2 | O=C(N/N=C/c1cccs1)c1ccnc(Br)c1 | soluble |  |  | 6% | 35 | 59 |  | 
3 | COc1cc(OC)c2c(-c3ccc(Br)cc3)c[nH]c2c1C(=O)NNC(=O)c1cccs1 | soluble |  | inactive | inactive |  |  | inactive | 
4 | O=C(N/N=C/c1ccc[nH]1)c1ccnc(Cl)c1 | soluble |  |  | 31% | 6 | 22 |  | 
5 | COc1cc(OC)c2c(C)c(C(=O)NNC(=O)c3c(OC)cc(OC)c4c(-c5ccc(Cl)cc5)c[nH]c34)[nH]c2c1 |  |  |  | 72% |  | 45 |  | 
6 | O=C(N/N=C/c1cccs1)c1cccs1 |  |  |  | 27% |  |  | inactive | 56
7 | COc1cc(OC)c2c(-c3ccc(Cl)cc3)c[nH]c2c1C(=O)NNC(=O)c1c(OC)cc(OC)c2c(-c3ccc(Cl)cc3)c[nH]c12 |  |  |  | 63% | 30 |  |  | 
8 | COc1cc(OC)c2c(-c3ccc(Br)cc3)c[nH]c2c1C(=O)N/N=C/c1ccc[nH]1 | soluble |  | inactive | 46% |  |  | inactive | 
9 | COc1cc(OC)c2c(-c3ccc(Cl)cc3)c[nH]c2c1C(=O)NNC(=O)c1ccnc(Br)c1 | soluble | 25 | inactive | 24% |  |  |  | 
10 | O=C(N/N=C/c1cccs1)c1ccco1 |  |  |  | 29% |  | 23 | inactive | 
11 | O=C(N/N=C/c1cccs1)c1ccncc1Br | soluble |  |  | 8% | 11 | 18 |  | 
12 | O=C(N/N=C/c1cc(Br)cs1)c1cccs1 | soluble |  |  | 36% |  | 23 | inactive | 
13 | COc1cc(OC)c2c(-c3ccc(Br)cc3)c[nH]c2c1C(=O)N/N=C/c1cccs1 | soluble |  |  | inactive |  | 29 | inactive | 
14 | COc1cnc(Cl)cc1C(=O)NNC(=O)c1c(OC)cc(OC)c2c(-c3ccc(Cl)cc3)c[nH]c12 | soluble | 37 |  | 28% |  | 26 |  | 
15 | O=C(N/N=C/c1cc(Br)cs1)c1ccc[nH]1 | soluble | 73 |  | 27% |  |  |  | 51
16 | COc1cc(OC)c2c(-c3ccc(Br)cc3)c[nH]c2c1C(=O)NNC(=O)c1ccncc1Br | soluble | 52 |  | 3% |  | 14 |  | 
17 | COc1cc(OC)c2c(-c3ccc(Br)cc3)c[nH]c2c1C(=O)NNC(=O)c1ccnc(Cl)c1 | soluble |  |  | 17% |  | 15 | inactive | 
18 | O=C(N/N=C/c1ccc[nH]1)c1ccco1 | soluble |  | inactive | 21% |  |  | inactive | 
19 | O=C(N/N=C/c1cccs1)c1ccnc(Cl)c1 | soluble | 29 |  | 30% |  | 30 |  | 
20 | O=C(N/N=C/c1ccc[nH]1)c1ccncc1Br | soluble |  |  | 9% |  | 7 | inactive | 
21 | O=C(N/N=C/c1ccc[nH]1)c1ccnc(Br)c1 | soluble |  |  | 8% |  | 53 | inactive | 
22 | CO[C@H]1/C=C/O[C@@]2(C)Oc3c(C)c(O)c4c(O)c(c(/C=N/N5CCN(C)CC5)c(O)c4c3C2=O)NC(=O)/C(C)=C\C=C\[C@H](C)[C@H](O)[C@@H](C)[C@@H](O)[C@@H](C)[C@H](OC(C)=O)[C@@H]1C [RIFAMPIN] |  |  |  |  | 100 | 98 |  | 

Now from value to compound, other results behind:

Row | solubility [3] | Compound | inhibition of growth at 200 µM (Bacillus subtilis [1]) [%] | growth inhibition (GI) (Escherichia coli [2]) | inhibition (BL21-DE3) | inhibition of growth at 200 µM (Bacillus subtilis [4]) [%] | inhibition of growth at 200 µM (Escherichia coli [2]) [%] | growth inhibition (GI) (Bacillus subtilis [4]) | inhibition of growth at 200 µM (Escherichia coli [5]) [%]
23 | soluble | COc1cc(OC)c2c(-c3ccc(Br)cc3)c[nH]c2c1C(=O)NNC(=O)c1ccc[nH]1 |  | inactive | inactive |  |  | inactive | 
24 | soluble | COc1cc(OC)c2c(-c3ccc(Cl)cc3)c[nH]c2c1C(=O)NNC(=O)c1cccs1 |  | inactive | inactive |  |  | inactive | 
25 | soluble | O=C(N/N=C/c1ccc[nH]1)c1cccs1 |  |  | 34% | 33 | 22 |  | 
26 | soluble | O=C(N/N=C/c1cccs1)c1ccc[nH]1 |  |  | 20% |  |  | inactive | 26
27 | soluble | COc1cnc(Cl)cc1C(=O)NNC(=O)c1c(OC)cc(OC)c2c(-c3ccc(Br)cc3)c[nH]c12 |  |  | 17% | 13 | 24 |  | 
28 | soluble | COc1cc(OC)c2c(-c3ccc(Cl)cc3)c[nH]c2c1C(=O)NNC(=O)c1ccncc1Br | 74 |  | 11% |  |  |  | 47
29 | soluble | O=C(N/N=C/c1ccco1)c1ccnc(Cl)c1 |  |  | 32% |  | 3 | inactive | 
30 | soluble | COc1cc(OC)c2c(-c3ccc(Cl)cc3)c[nH]c2c1C(=O)N/N=C/c1cccs1 |  | inactive | 38% |  |  | inactive | 
31 | soluble | COc1cc(OC)c2c(-c3ccc(Cl)cc3)c[nH]c2c1C(=O)NNC(=O)c1ccc[nH]1 |  | inactive | inactive |  |  | inactive | 
32 | soluble | COc1cc(OC)c2c(-c3ccc(Cl)cc3)c[nH]c2c1C(=O)NNC(=O)c1ccnc(Cl)c1 |  |  | 14% | 17 | 10 |  | 
33 | soluble | O=C(N/N=C/c1ccco1)c1ccco1 |  |  | 3% |  | 18 | inactive | 
34 | soluble | COc1cc(OC)c2c(-c3ccc(Cl)cc3)c[nH]c2c1C(=O)N/N=C/c1ccco1 |  |  | 34% | 7 |  |  | 37
35 | soluble | O=C(N/N=C/c1ccc[nH]1)c1ccc[nH]1 |  |  | 41% | 30 | 21 |  | 
36 | soluble | O=C(N/N=C/c1ccco1)c1cccs1 |  |  | 18% | 4 |  |  | 50
37 | soluble | COc1cc(OC)c2c(-c3ccc(Br)cc3)c[nH]c2c1C(=O)N/N=C/c1ccco1 |  |  | 33% |  | 16 | inactive | 
38 | soluble | O=C(N/N=C/c1ccco1)c1ccc[nH]1 |  |  | 8% |  | 3 | inactive | 
39 | soluble | O=C(N/N=C/c1cc(Br)cs1)c1ccco1 |  |  | inactive |  | 7 | inactive | 
